Experimental findings from US9102591B2, “Benzamides” (H. Lundbeck A/S, priority 2012, dated 2015) are described below.

Molecules are shown by their SMILES. pIC50: −log10 of the molar value.

In this experiment the target is P2X7 receptor (Homo sapiens (Human), UniProt Q99572). Nature of the experiment: P2X7 FLIPR assay (BzATP-stimulated calcium fluorescence, antagonist IC50). Format: cell-based. The gist of the method:
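Cells expressing P2X7 receptor (human, rat or mouse), plated 24 hours earlier in low-serum medium, loaded with Fluo-4 NW dye (30 min 37° C, 30 min room temperature).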

Chain of P2X7 receptor (Q99572 whole entry): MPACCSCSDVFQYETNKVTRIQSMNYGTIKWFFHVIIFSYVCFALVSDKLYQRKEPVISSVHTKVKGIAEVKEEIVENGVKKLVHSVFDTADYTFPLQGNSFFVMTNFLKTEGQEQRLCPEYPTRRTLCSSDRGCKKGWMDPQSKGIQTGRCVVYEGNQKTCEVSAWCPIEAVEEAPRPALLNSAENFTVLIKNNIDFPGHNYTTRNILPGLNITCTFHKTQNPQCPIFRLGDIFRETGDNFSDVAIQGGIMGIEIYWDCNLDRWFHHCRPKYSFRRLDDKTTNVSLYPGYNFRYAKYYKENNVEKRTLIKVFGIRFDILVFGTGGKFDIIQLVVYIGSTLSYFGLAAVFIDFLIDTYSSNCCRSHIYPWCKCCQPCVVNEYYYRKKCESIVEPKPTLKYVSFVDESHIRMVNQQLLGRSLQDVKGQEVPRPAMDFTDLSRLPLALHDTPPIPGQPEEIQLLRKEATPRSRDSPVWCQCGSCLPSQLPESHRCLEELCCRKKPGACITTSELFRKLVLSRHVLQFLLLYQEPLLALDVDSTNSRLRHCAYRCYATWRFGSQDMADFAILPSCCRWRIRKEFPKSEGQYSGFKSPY

As for `CS(=O)(=O)c1ccc(Cl)c(C(=O)NCC2(c3ccc(F)nc3)CCC(F)(F)CC2)c1` [2-chloro-N-((4,4-difluoro-1-(6-fluoropyridin-3-yl)cyclohexyl)methyl)-5-(methylsulfonyl)benzamide], the pIC50 (commonly the IC50 on a negative log10 scale, so that one unit is a factor of ten) was 8.06.

In the case of `COc1cccc(C(=O)NCC2(c3ccc(C(F)(F)F)nc3)CCC(F)(F)CC2)c1C` [N-((4,4-difluoro-1-(6-(trifluoromethyl)pyridin-3-yl)cyclohexyl)methyl)-3-methoxy-2-methylbenzamide], the pIC50 is 8.80.

Regarding `O=C(NCC1(c2ccc(Cl)cc2)CCOCC1)c1cc(F)ccc1F` [N-[4-(4-Chloro-phenyl)-tetrahydro-pyran-4-ylmethyl]-2,5-difluoro-benzamide], the pIC50 was 5.52.

`Cc1ncc(C(CNC(=O)c2cccc(F)c2Cl)C2CCC(F)(F)CC2)cn1` (stereo not shown) [2-chloro-N-[2-(4,4-difluorocyclohexyl)-2-(2-methylpyrimidin-5-yl)ethyl]-3-fluoro-benzamide]: the pIC50 was 7.08.

Turning to `O=C(NCC(c1cnc(C(F)(F)F)nc1)C1CCOCC1)c1ccccc1Cl` (single isomer, unassigned; (-)) [(−)2-chloro-N-[2-tetrahydropyran-4-yl-2-[2-(trifluoromethyl)] [(−)2-chloro-N-[2-tetrahydropyran-4-yl-2-[2-(trifluoromethyl)pyrimidin-5-yl]ethyl]benzamide], the pIC50 is 7.25.

As to `O=C(NCC(CC1CC1)c1ccc(C(F)F)nc1)c1cccc(F)c1Cl` (single isomer, unassigned; (+)) [(+)2-chloro-N-[3-cyclopropyl-2-[6-(difluoromethyl)-3-pyridyl] [(+)2-chloro-N-[3-cyclopropyl-2-[6-(difluoromethyl)-3-pyridyl]propyl]-3-fluoro-benzamide], the pIC50 was 6.10.

In the case of `CS(=O)(=O)c1ccc(Cl)c(C(=O)NCC(CC2CC2)c2ccc(C(F)(F)F)nc2)c1` (single isomer, unassigned; (-)) [(−)2-chloro-N-[3-cyclopropyl-2-[6-(trifluoromethyl)-3-pyridy] [(−)2-chloro-N-[3-cyclopropyl-2-[6-(trifluoromethyl)-3-pyridyl]propyl]-5-methylsulfonyl-benzamide], the negative-log IC50 (pIC50) is 8.09.

Turning to `Cc1ccc(C(CNC(=O)c2cccc(Cl)c2Cl)CC(C)C)cn1` (stereo not shown) [2,3-Dichloro-N-[4-methyl-2-(6-methyl-pyridin-3-yl)-pentyl]-benzamide], the pIC50 is 9.00.

Turning to `O=C(NCC(CC1CC1)c1ccc(C(F)F)nc1)c1ccccc1Cl` (single isomer, unassigned; (+)) [(+)2-chloro-N-[3-cyclopropyl-2-[6-(difluoromethyl)-3-pyridyl] [(+)2-chloro-N-[3-cyclopropyl-2-[6-(difluoromethyl)-3-pyridyl]propyl]benzamide], the pIC50 is 6.19.

As for `O=C(NCC(c1ccc(F)cc1)c1cnc(C(F)(F)F)nc1)c1c(F)cccc1Cl` (single isomer, unassigned; (-)) [(−)2-chloro-6-fluoro-N-[2-(4-fluorophenyl)-2-[2-(trifluorome] [(−)2-chloro-6-fluoro-N-[2-(4-fluorophenyl)-2-[2-(trifluoromethyl)pyrimidin-5-yl]ethyl]benzamide], the pIC50 was 8.59.

`O=C(NC[C@H](c1cnc(C(F)(F)F)nc1)C1CCOCC1)c1cccc(Cl)c1Cl` (single isomer, unassigned) [(+)2,3-dichloro-N-[2-tetrahydropyran-4-yl-2-[2-trifluoromethyl)pyrimidin-5-yl]ethyl]benzamide]: the pIC50 is 8.39.

Regarding `Cc1c(F)cccc1C(=O)NCC1(c2ccc(C(F)(F)F)nc2)CCC(F)(F)CC1` [N-((4,4-difluoro-1-(6-(trifluoromethyl)pyridin-3-yl)cyclohexyl)methyl)-3-fluoro-2-methylbenzamide], the pIC50 was 8.40.

Regarding `CS(=O)(=O)c1ccc(Cl)c(C(=O)NCC(CC2CC2)c2ccc(C(F)(F)F)nc2)c1` (single isomer, unassigned; (+)) [(+)2-chloro-N-[3-cyclopropyl-2-[6-(trifluoromethyl)-3-pyridy] [(+)2-chloro-N-[3-cyclopropyl-2-[6-(trifluoromethyl)-3-pyridyl]propyl]-5-methylsulfonyl-benzamide], the pIC50 was 6.25.

In the case of `O=C(NCC1(c2ccc(C(F)(F)F)nc2)CCC(F)(F)CC1)c1cccc(Cl)c1F` [3-chloro-N-((4,4-difluoro-1-(6-(trifluoromethyl)pyridin-3-yl)cyclohexyl)methyl)-2-fluorobenzamide], the pIC50 is 8.49.

Consider `O=C(NCC(CC1CC1)c1ccc(C(F)(F)F)nc1)c1c(Cl)cccc1Cl` (stereo not shown) [2,6-dichloro-N-(3-cyclopropyl-2-(6-(trifluoromethyl)pyridin-] [2,6-dichloro-N-(3-cyclopropyl-2-(6-(trifluoromethyl)pyridin-3-yl)propyl)benzamide], for which the negative-log IC50 (pIC50) is 9.15.

`O=C(NCC(c1ccc(F)cc1)c1cnc(C(F)(F)F)nc1)c1ccccc1Cl` (single isomer, unassigned; (-)) [(−)2-chloro-N-[2-(4-fluorophenyl)-2-[2-(trifluoromethyl)pyri] [(−)2-chloro-N-[2-(4-fluorophenyl)-2-[2-(trifluoromethyl)pyrimidin-5-yl]ethyl]benzamide]: the pIC50 is 8.70.

With `O=C(NCC(CC1CC1)c1cnc(C(F)(F)F)nc1)c1c(F)cccc1Cl` (stereo not shown) [2-chloro-N-(3-cyclopropyl-2-(2-(trifluoromethyl)pyrimidin-5-] [2-chloro-N-(3-cyclopropyl-2-(2-(trifluoromethyl)pyrimidin-5-yl)propyl)-6-fluorobenzamide], the pIC50 is 7.66.

On to `O=C(NCC(c1ccccc1)c1ccnnc1)c1cccc(Cl)c1Cl` (stereo not shown) [2,3-dichloro-N-(2-phenyl-2-pyridazin-4-yl-ethyl)benzamide], for which the pIC50 was 7.03.

Consider `O=C(NCC(CC1(C(F)(F)F)CC1)c1cnc(C(F)(F)F)nc1)c1cccc(Cl)c1Cl` (single isomer, unassigned; (+)) [(+)2,3-dichloro-N-[3-[1-(trifluoromethyl)cyclopropyl]-2-[2-(] [(+)2,3-dichloro-N-[3-[1-(trifluoromethyl)cyclopropyl]-2-[2-(trifluoromethyl)pyrimidin-5-yl]propyl]benzamide], for which the pIC50 was 8.80.

Take `O=C(NCC(c1cnc(C(F)(F)F)nc1)C1CCC(F)(F)CC1)c1cccc(Cl)c1Cl` (single isomer, unassigned; (-)) [(−)2,3-dichloro-N-[2-(4,4-difluorocyclohexyl)-2-[2-(trifluor] [(−)2,3-dichloro-N-[2-(4,4-difluorocyclohexyl)-2-[2-(trifluoromethyl)pyrimidin-5-yl]ethyl]benzamide]: the pIC50 is 8.37.

Regarding `O=C(NCC(CC1CC1)c1cnc(C(F)(F)F)nc1)c1c(F)cccc1Cl` (single isomer, unassigned; (+)) [(+)2-chloro-N-[3-cyclopropyl-2-[2-(trifluoromethyl)pyrimidin] [(+)2-chloro-N-[3-cyclopropyl-2-[2-(trifluoromethyl)pyrimidin-5-yl]propyl]-6-fluoro-benzamide], the negative logarithm of the IC50 (pIC50) is 7.39.

For `O=C(NCC1(c2ccc(Cl)cc2)CCOCC1)c1c(Cl)cccc1Cl` [2,6-Dichloro-N-[4-(4-chloro-phenyl)-tetrahydro-pyran-4-ylmethyl]-benzamide], the pIC50 was 6.44.
